In patent US8680275B2, “Fused heterocyclic compounds as orexin receptor modulators” (Janssen Pharmaceutica NV, priority 2009, dated 2014):

How the values were obtained:
[1] = molecular target: human orexin-2 receptor (Homo sapiens (Human), UniProt O43614); test: Human orexin 2 receptor radioligand binding ([3H]-EMPA competition); settings: HEK293 cells stably expressing human orexin-2 receptor; [3H]-EMPA 5 nM final; read-out: OR-2 Ki
Procedure: (§1) The in vitro affinity of the compounds for the human orexin-1 and orexin-2 receptors was determined by competitive radioligand binding using [^3H]SB SB674042 (1-(5-(2-fluoro-phenyl)-2-methyl-thiazol-4-yl)-1-((S)-2-(5-phenyl-(1,3,4)oxadiazol-2-ylmethyl)-pyrrolidin-1-yl)methanone) (Langmead et al., British Journal of Pharmacology 2004, 141:340-346.) and [^3H]EMPA (N-ethyl-2[(6-methoxy-pyridin-3-yl)-(toluene-2-sulfonyl)-amino]-N-pyridin-3-ylmethyl acetamide) (Malherbe et al., British Journal of Pharmacology, 2009, 156(8), 1326-1341), respectively.
Human Orexin 2 Receptor Radioligand Binding Studies
HEK293 stably expressing human orexin-2 receptor (Genebank accession number NM_001526) were grown to confluency in DMEM/F12 (Gibco, Cat #11039), in DMEM, 10% FBS, 1× Pen/Strep, 1× NaPyruvate, 1×HEPES, 600 ug/ml G418 media on 150 cm^2 tissue culture plates, washed with 5 mM EDTA in PBS (HyClone Dulbecco's Phosphate Buffered Saline 1× with Calcium and Magnesium, Cat #SH30264.01, hereafter referred to simply as PBS) and scraped into 50 ml tubes. After centrifugation (2K xG, 10 min at 4° C.), the supernatant was aspirated and the pellets frozen and stored at −80° C. Cells were resuspended in PBS in the presence of 1 tablet of protease inhibitor cocktail (Roche, Cat. #11836145001) per 50 mL. […] Competition binding experiments in 96 well polypropylene plates were performed using [^3H]-EMPA (Moravek Corporation, specific activity=27 Ci/mmol), diluted to a […] concentration in PBS (5 nM final concentration). Compounds were solubilized in 100% DMSO (Acros Organics, Cat. #61042-1000) and tested over a range of 7 concentrations (from 0.1 nM to 10 μM). The final concentration of DMSO in the reactions is equal to or less than 0.1%. Total and nonspecific binding was determined in the absence and presence of 10 μM (N-[2-(3,4-dimethoxyphenyl)ethyl]-N-methylnaphthalene-1-carboxamide, CAS Registry #1089563-88-1). The total volume of each reaction is 200 μL (20 μL of diluted compounds, 80 μL of [^3H]-EMPA diluted in PBS and 100 μL of the cell suspension). Reactions were run for 60 min at room temperature and terminated by filtration through GF/C filter plates (PerkinElmer, Cat. #6005174) presoaked in 0.3% polyethylenimine using the cell harvester (Perkin Elmer Filtermate). The plates were washed 3 times by aspirating 30 ml PBS through the plates. Plates were dried in 55° C. oven for 60 min, scintillation fluid was added, and the radioactivity was counted on a Topcount (Packard).

[2] = molecular target: human orexin 1 receptor (Homo sapiens (Human), UniProt O43613); test: Human orexin 1 receptor radioligand binding ([3H]-SB674042 competition); settings: CHO cells stably expressing human orexin 1 receptor; [3H]-SB674042 4 nM final; read-out: OR-1 Ki
Procedure: as §1
Human Orexin 1 Receptor Radioligand Binding Studies
Chinese ovary cells (CHO) stably expressing human orexin 1 receptor (Genebank accession number NM_001526) were grown to confluency in DMEM/F12 (Gibco, Cat #11039), 10% FBS, 1× Pen/Strep, 600 μg/mL G418 media on 150 cm^2 tissue culture plates, washed with 5 mM EDTA in PBS (HyClone Dulbecco's Phoshpate Buffered Saline 1× with Calcium and Magnesium, Cat #SH30264.01, hereafter referred to simply as PBS) and scraped into 50 ml tubes. After centrifugation (2K xG, 10 min at 4° C.), the supernatant was aspirated and the pellets frozen and stored at −80° C. Cells were resuspended in PBS in the presence of 1 tablet of protease inhibitor cocktail (Roche, Cat. #11836145001) per 50 mL. […] Compounds were solubilized in 100% DMSO (Acros Organics, Cat. #61042-1000) and tested over a range of 7 concentrations (from 0.1 nM to 10 μM). The final concentration of DMSO in the reactions is equal to or less than 0.1%. Total and nonspecific binding was determined in the absence and presence of 10 μM (1-(6,8-difluoro-2-methylquinolin-4-yl)-3-[4-(dimethylamino)phenyl]urea, CAS Registry #288150-92-5). The total volume of each reaction is 200 μL (20 μL of diluted compounds, 80 μL of [^3H]-SB674042 diluted in PBS and 100 μL of the cell suspension). Reactions were run for 60 min at room temperature and terminated by filtration through GF/C filter plates (PerkinElmer, Cat. #6005174) presoaked in 0.3% polyethylenimine using the cell harvester (PerkinElmer Filtermate). The plates were washed 3 times by aspirating 30 ml PBS through the plates. Plates were dried in 55° C. oven for 60 min, scintillation fluid was added, and the radioactivity was counted on a Topcount (Packard).

Chain of human orexin 1 receptor (O43613 whole entry): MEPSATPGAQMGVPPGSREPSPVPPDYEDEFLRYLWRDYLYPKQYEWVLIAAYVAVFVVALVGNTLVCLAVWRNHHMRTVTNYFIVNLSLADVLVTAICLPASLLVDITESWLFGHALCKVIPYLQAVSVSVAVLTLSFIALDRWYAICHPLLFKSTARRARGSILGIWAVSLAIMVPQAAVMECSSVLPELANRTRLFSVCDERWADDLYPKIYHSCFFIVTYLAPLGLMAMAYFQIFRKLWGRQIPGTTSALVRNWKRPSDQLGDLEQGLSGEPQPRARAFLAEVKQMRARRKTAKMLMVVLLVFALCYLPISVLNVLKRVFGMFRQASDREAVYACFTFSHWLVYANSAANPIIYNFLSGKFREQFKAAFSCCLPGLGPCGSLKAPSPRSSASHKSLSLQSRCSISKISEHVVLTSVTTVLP
Chain of human orexin-2 receptor (O43614 whole entry): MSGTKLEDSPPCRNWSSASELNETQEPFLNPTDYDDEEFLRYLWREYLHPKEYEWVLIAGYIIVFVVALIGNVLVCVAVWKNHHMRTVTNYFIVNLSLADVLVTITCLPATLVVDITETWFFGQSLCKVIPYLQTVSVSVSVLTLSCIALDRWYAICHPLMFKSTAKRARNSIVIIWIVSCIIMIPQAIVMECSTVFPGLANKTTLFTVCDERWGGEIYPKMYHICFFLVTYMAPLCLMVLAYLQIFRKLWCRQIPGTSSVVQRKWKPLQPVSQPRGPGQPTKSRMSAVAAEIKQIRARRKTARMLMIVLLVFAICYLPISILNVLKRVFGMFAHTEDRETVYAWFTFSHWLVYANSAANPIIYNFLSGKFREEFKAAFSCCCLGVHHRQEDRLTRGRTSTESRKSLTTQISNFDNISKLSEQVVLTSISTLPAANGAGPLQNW

## COc1ccc(C(=O)N2CC[C@H]3CN(c4nc(C)cc(C)n4)[C@H]3C2)c(-n2ccnn2)n1 [Example 163, (1R,6S)-8-(4,6-Dimethylpyrimidin-2-yl)-3-{[6-methoxy-2-(1H-1,2,3-triazol-1-yl)pyridin-3-yl]carbonyl}-3,8-diazabicyclo[4.2.0]octane]
[1]
  Ki: 700 nM
[2]
  Ki: 10000 nM

## Cc1nccnc1N1C[C@@H]2CCN(C(=O)c3ccc(F)cc3-n3nccn3)C[C@@H]21 [Example 108, (1R,6S)-3-{[4-Fluoro-2-(2H-1,2,3-triazol-2-yl)phenyl]carbonyl}-8-(3-methylpyrazin-2-yl)-3,8-diazabicyclo[4.2.0]octane]
[1]
  Ki: 10000 nM
[2]
  Ki: 10000 nM

## Cc1ccc(-c2ccccc2C(=O)N2CC[C@H]3CN(c4cnc5ccccc5n4)[C@H]3C2)cc1 [Example 10, (1R,6S)(4′-Methyl-biphenyl-2-yl)-(8-quinoxalin-2-yl-3,8-diaza-bicyclo[4.2.0]oct-3-yl)-methanone]
[1]
  Ki: 44 nM
[2]
  Ki: 18 nM

## COc1ccc(C(=O)N2CC[C@H]3CN(c4nc(C)cc(C)n4)[C@H]3C2)c(-n2nccn2)c1 [Example 90, (1R,6S)-8-(4,6-Dimethylpyrimidin-2-yl)-3-{[4-methoxy-2-(2H-1,2,3-triazol-2-yl)phenyl]carbonyl}-3,8-diazabicyclo[4.2.0]octane]
[1]
  Ki: 150 nM
[2]
  Ki: ≥ 10000 nM

## Cc1cnc(C)c(N2C[C@@H]3CCN(C(=O)c4cccc(F)c4-n4nccn4)C[C@@H]32)n1 [Example 99, (1R,6S)-8-(3,6-Dimethylpyrazin-2-yl)-3-{[3-fluoro-2-(2H-1,2,3-triazol-2-yl)phenyl]carbonyl}-3,8-diazabicyclo[4.2.0]octane]
[1]
  Ki: 96 nM
[2]
  Ki: 4140 nM

## COc1ccnc(N2CC3CN(C(=O)c4ccccc4-c4cccs4)CC32)n1 (centres unmarked) [Example 62, 6-(4-Methoxypyrimidin-2-yl)-3-[(2-thiophen-2-ylphenyl)carbonyl]-3,6-diazabicyclo[3.2.0]heptane]
[1]
  Ki: 123 nM
[2]
  Ki: 5000 nM

## Cc1cc(C)nc(N2C[C@@H]3CCN(C(=O)c4nc(C)sc4-c4ccc(F)cc4)C[C@@H]32)n1 [Example 173, (1R,6S)-8-(4,6-Dimethylpyrimidin-2-yl)-3-{[5-(4-fluorophenyl)-2-methyl-1,3-thiazol-4-yl]carbonyl}-3,8-diazabicyclo[4.2.0]octane]
[1]
  Ki: 62 nM
[2]
  Ki: 2150 nM

## Cc1ccc(C(F)(F)F)c(C(=O)N2CC[C@H]3CN(c4ccnc(-c5ccccc5)n4)[C@H]3C2)c1 [Example 195, (5-Methyl-2-(trifluoromethyl)phenyl)((1R,6S)-8-(2-phenylpyrimidin-4-yl)-3,8-diazabicyclo[4.2.0]octan-3-yl)methanone]
[1]
  Ki: 28 nM
[2]
  Ki: 16 nM

## Cc1cc(C)nc(N2C[C@@H]3CCN(C(=O)c4ncoc4-c4cccc(Cl)c4)C[C@@H]32)n1 [Example 178, (1R,6S)-3-{[5-(3-Chlorophenyl)-1,3-oxazol-4-yl]carbonyl}-8-(4,6-dimethylpyrimidin-2-yl)-3,8-diazabicyclo[4.2.0]octane]
[1]
  Ki: 126 nM
[2]
  Ki: 7000 nM

## Nc1cc(N2C[C@@H]3CCN(C(=O)c4cc(F)ccc4-n4nccn4)C[C@@H]32)nc(N)n1 [Example 192, 6-[(1R,6S)-3-{[5-Fluoro-2-(2H-1,2,3-triazol-2-yl)phenyl]carbonyl}-3,8-diazabicyclo[4.2.0]oct-8-yl]pyrimidine-2,4-diamine]
[1]
  Ki: 1400 nM
[2]
  Ki: 10000 nM

## Cc1ccc(-n2nccn2)c(C(=O)N2CC3CN(c4nc(C)cc(C)n4)C3C2)c1 (centres unmarked) [Example 68, 6-(4,6-Dimethylpyrimidin-2-yl)-3-{[5-methyl-2-(2H-1,2,3-triazol-2-yl)phenyl]carbonyl}-3,6-diazabicyclo[3.2.0]heptane]
[1]
  Ki: 192 nM
[2]
  Ki: 5000 nM

## Cc1cc(N2C[C@@H]3CCN(C(=O)c4cc(F)ccc4-n4nccn4)C[C@@H]32)nc(N(C)C)n1 [Example 40, (1R,6S)-[8-(2-Dimethylamino-6-methyl-pyrimidin-4-yl)-3,8-diaza-bicyclo[4.2.0]oct-3-yl]-(5-fluoro-2-[1,2,3]triazol-2-yl-phenyl)-methanone]
[1]
  Ki: 91 nM
[2]
  Ki: 1210 nM

## Cc1cc(C)nc(N2C[C@@H]3CCN(C(=O)c4nccnc4-c4ccccc4)C[C@@H]32)n1 [Example 137, (1R,6S)-8-(4,6-Dimethylpyrimidin-2-yl)-3-[(3-phenylpyrazin-2-yl)carbonyl]-3,8-diazabicyclo[4.2.0]octane]
[1]
  Ki: 275 nM
[2]
  Ki: 10000 nM

## O=C(c1ccccc1-c1ccco1)N1CC[C@H]2CN(c3cnc4ccccc4n3)[C@H]2C1 [Example 6, (1R,6S)(2-Furan-2-yl-phenyl)-(8-quinoxalin-2-yl-3,8-diaza-bicyclo[4.2.0]oct-3-yl)-methanone]
[1]
  Ki: 20 nM
[2]
  Ki: 18 nM

## Cc1cncc(N2C[C@@H]3CCN(C(=O)c4cccc(F)c4-n4nccn4)C[C@@H]32)n1 [Example 110, (1R,6S)-3-{[3-Fluoro-2-(2H-1,2,3-triazol-2-yl)phenyl]carbonyl}-8-(6-methylpyrazin-2-yl)-3,8-diazabicyclo[4.2.0]octane]
[1]
  Ki: 220 nM
[2]
  Ki: 10000 nM

## CN(C)c1nc(N2C[C@@H]3CCN(C(=O)c4ccc(F)cc4-n4nccn4)C[C@@H]32)cc(C(F)(F)F)n1 [Example 38, (1R,6S)-[8-(2-Dimethylamino-6-trifluoromethyl-pyrimidin-4-yl)-3,8-diaza-bicyclo[4.2.0]oct-3-yl]-(4-fluoro-2-[1,2,3]triazol-2-yl-phenyl)-methanone]
[1]
  Ki: 16 nM
[2]
  Ki: 77 nM

## Cc1cc(C)nc(N2C[C@@H]3CCN(C(=O)c4cccc(F)c4-n4cccn4)C[C@@H]32)n1 [Example 155, (1R,6S)-8-(4,6-Dimethylpyrimidin-2-yl)-3-{[3-fluoro-2-(1H-pyrazol-1-yl)phenyl]carbonyl}-3,8-diazabicyclo[4.2.0]octane]
[1]
  Ki: 57 nM
[2]
  Ki: 1530 nM

## COc1ccc(-n2nccn2)c(C(=O)N2CC[C@H]3CN(c4nc(C)cc(C)n4)[C@H]3C2)c1 [Example 134, (1R,6S)-8-(4,6-Dimethylpyrimidin-2-yl)-3-{[5-methoxy-2-(2H-1,2,3-triazol-2-yl)phenyl]carbonyl}-3,8-diazabicyclo[4.2.0]octane]
[1]
  Ki: 16 nM
[2]
  Ki: 277 nM

## CNc1nc(C)cc(N2C[C@@H]3CCN(C(=O)c4cc(F)ccc4-n4nccn4)C[C@@H]32)n1 [Example 187, 4-[(1R,6S)-3-{[5-Fluoro-2-(2H-1,2,3-triazol-2-yl)phenyl]carbonyl}-3,8-diazabicyclo[4.2.0]oct-8-yl]-N,6-dimethylpyrimidin-2-amine]
[1]
  Ki: 310 nM
[2]
  Ki: 10000 nM
